The source of these data is US20250074911A1, “MACROCYCLIC BTK INHIBITORS” (Crossfire Oncology Holding B.V., priority 2021, published 2025).

Test [1] addresses full-length BTK C481S enzyme (Homo sapiens (Human), UniProt Q06187, C481S). Briefly: Biochemical kinase assay BTK C481S (IMAP). A digest of the protocol: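 IC50 values come from IMAP fluorescence polarization after quenching with progressive binding solution. The reaction ran 2 h at room temperature in the dark with 1.2 nM full-length C481S enzyme, 7 μM ATP and 50 nM fluorescein-labelled MBP-derived peptide, following a 1 h dark pre-incubation of compound with enzyme.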

A further test has as its system REC-1 T474I cell lines. Briefly: Cell proliferation assay REC-1 BTK T474I knock-in cells (ATPlite, 72 hours). It is filed as cell-based. The conditions noted are these: Homo sapiens, Rec1; 72 hours; read-out: IC50 REC-1 T474I. A digest of the protocol:
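REC-1 cells carrying CRISPR knock-in mutant BTK, single-cell cloned and sequence-confirmed, were exposed to compound for 72 h and read by ATPlite luminescence. Percentage growth was calculated against the signal at the start of incubation and against untreated 0.3% DMSO wells as maximum growth.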

For a further test, the target named is BTK T316A (Homo sapiens (Human), UniProt Q06187, T316A). Briefly: Binding kinetics measurements (Surface Plasmon Resonance) on BTK T316A. As to conditions: for Tau (h) BTK T316A (Act): target residence time, SPR; for Kd: binding affinity by Surface Plasmon Resonance (SPR). A digest of the protocol:
(§1)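 Protein was immobilized on a streptavidin surface at 4° C, then equilibrated in running buffer containing 1% DMSO at 30 μl/min for at least 30 min. Compounds were injected five times at increasing concentrations (3.16-316 nM) at 22° C. Induced-fit binders were fitted with a two-state reaction model.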

For a further test, the target named is BTK T474I (Homo sapiens (Human), UniProt Q06187, T474I). Briefly: Binding kinetics measurements (Surface Plasmon Resonance) on BTK T474I. As to conditions: for Tau (h) BTK T474I (Act): target residence time, SPR; for Kd: binding affinity by Surface Plasmon Resonance (SPR). A digest of the protocol:
as §1

The next test concerns the target BTK C481S (Homo sapiens (Human), UniProt Q06187, C481S). Briefly: Binding kinetics measurements (Surface Plasmon Resonance) on BTK C481S. As to conditions: for Tau (h) BTK C418S (Act): target residence time for BTK C481S, SPR; for Kd: binding affinity by Surface Plasmon Resonance (SPR). The procedure, abridged: as §1
In the next test the target is BTK T474S (Homo sapiens (Human), UniProt Q06187, T474S). The test is described as follows: Binding kinetics measurements (Surface Plasmon Resonance) on BTK T474S. As to conditions: for residence time: SPR binding kinetics, BTK T474S, read-out: Tau (h) BTK T474S (Act), target residence time (converted); for Kd: binding affinity by Surface Plasmon Resonance (SPR). A digest of the protocol:
as §1
A general note: Surface plasmon resonance follows binding to a sensor surface in real time, without labels.

Test [2] relates to wt-TMD8 diffuse large B-cell lymphoma cells. Briefly: Cell proliferation assay wt-TMD8 (ATPlite, 120 hours). Format: cell-based. The conditions noted are these: B-cell; wt-TMD8 cells, 120 hours, ATPlite; read-out: IC50 wt-TMD8. A digest of the protocol: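 Readout is percentage growth from ATPlite 1Step luminescence after 5 days (120 h) compound treatment of wt-TMD8 lymphoma cells (1600/well, RPMI-1640 + 10% FBS). Time-zero signal separates growth inhibition from cell kill; 0.3% DMSO wells without compound define maximal growth.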
(ATP-based viability assays read luminescence as a measure of living cells.)

Test [3] addresses full-length wt-BTK enzyme (Homo sapiens (Human), UniProt Q06187). The test is described as follows: Biochemical kinase assay wt-BTK (IMAP). The procedure, abridged: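 Compound and enzyme (final 1.2 nM) were pre-incubated for 1 h at RT, after which the reaction was started with 4 μM ATP plus 50 nM fluorescein-MBP substrate peptide. After 2 h in the dark, the IMAP progressive binding reagent stopped the reaction, and phosphorylation was read by fluorescence polarization.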

The target in the next test is wt-BTK (Homo sapiens (Human), UniProt Q06187). The test is described as follows: Binding kinetics measurements (Surface Plasmon Resonance) on wt-BTK. The conditions noted are these: for Tau (h) wt-BTK (Act): target residence time, SPR; for Kd: binding affinity by Surface Plasmon Resonance (SPR). The procedure, abridged:
as §1

Test [4] deals with wt-REC-1 mantle cell lymphoma cells. Briefly: Cell proliferation assay wt-REC-1 (ATPlite, 72 hours). Format: cell-based. As to conditions: 72 h; read-out: IC50 wt-REC-1. The procedure, abridged:
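Luminescent viability read over 72 h, start-of-incubation signal recorded separately to separate growth from cell death. Percentage growth referenced to compound-free 0.3% DMSO wells; IC50 from 4-parameter logistic fit.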

As usually defined, the IC50 is the concentration at which inhibition is half-maximal. One may read the Kd as the equilibrium constant for the complex coming apart. Low values mean a tighter complex, high ones a looser complex.

“And” between values parts separate entries of the source, which are not always exact repeats. Identical values can stand only once.

Sequence of full-length BTK C481S enzyme (Q06187 whole entry C481S): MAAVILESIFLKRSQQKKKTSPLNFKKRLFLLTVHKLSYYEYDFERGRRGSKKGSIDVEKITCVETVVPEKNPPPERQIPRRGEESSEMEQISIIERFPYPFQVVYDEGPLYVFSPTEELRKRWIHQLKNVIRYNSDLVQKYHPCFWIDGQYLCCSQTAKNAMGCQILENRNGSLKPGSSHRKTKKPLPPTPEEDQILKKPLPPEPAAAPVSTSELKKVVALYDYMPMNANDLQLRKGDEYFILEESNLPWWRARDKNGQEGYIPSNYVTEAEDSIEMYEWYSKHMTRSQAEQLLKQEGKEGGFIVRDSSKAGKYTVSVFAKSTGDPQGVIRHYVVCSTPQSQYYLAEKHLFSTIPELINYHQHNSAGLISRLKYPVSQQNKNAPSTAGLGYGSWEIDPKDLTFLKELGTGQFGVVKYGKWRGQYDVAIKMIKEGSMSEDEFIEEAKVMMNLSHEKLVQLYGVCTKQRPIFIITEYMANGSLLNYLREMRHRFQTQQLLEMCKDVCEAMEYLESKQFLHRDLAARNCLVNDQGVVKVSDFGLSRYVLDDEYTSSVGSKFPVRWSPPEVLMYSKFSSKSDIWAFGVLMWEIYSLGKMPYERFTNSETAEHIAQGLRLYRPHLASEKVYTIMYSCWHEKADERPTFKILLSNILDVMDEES
Sequence of BTK C481S (Q06187 whole entry C481S): as above
Sequence of BTK T316A (Q06187 whole entry T316A): as the sequence (Q06187 whole entry C481S) above, with T316A, S481C counted along it
Sequence of BTK T474I (Q06187 whole entry T474I): as the sequence (Q06187 whole entry C481S) above, with T474I, S481C counted along it
Sequence of BTK T474S (Q06187 whole entry T474S): as the sequence (Q06187 whole entry C481S) above, with T474S, S481C counted along it
Sequence of wt-BTK (Q06187 whole entry): as the sequence (Q06187 whole entry C481S) above, with S481C counted along it
Sequence of full-length wt-BTK enzyme (Q06187 whole entry): as the sequence (Q06187 whole entry C481S) above, with S481C counted along it

As for `Nc1ncc2c3c1c(-c1ccc(C(=O)Nc4cc(C(F)(F)F)ccn4)cc1)nn3[C@@H]1CC[C@H](C1)NC(=O)CCOC/C=C/2` [Example 170], the IC50 is < 5 nM in test [1]; < 100 nM in the test with REC-1 T474I cell lines; < 100 nM in [2]; < 5 nM in test [3]; < 100 nM in test [4]. Further, the “Tau (h) BTK T316A (Act)” value on BTK T316A stood at 1.58 h. In addition, the “Tau (h) BTK T474I (Act)” value on BTK T474I is listed as 2.54 h. The “Tau (h) BTK C418S (Act)” value at BTK C481S amounted to 2.76 h. Besides, the residence time at BTK T474S is 3.15 h. The “Tau (h) wt-BTK (Act)” value at wt-BTK came to 2.05 h.
For the compound `C[C@H]1CC(=O)N[C@@H]2CCC[C@H](C2)n2nc(-c3ccc(C(=O)Nc4cc(C(F)(F)F)ccn4)cc3)c3c(N)ncc(c32)/C=C/CCN1C` [Example 152], the IC50 is < 5 nM in test [1]; < 100 nM with REC-1 T474I cell lines; < 100 nM in test [2]; < 5 nM in test [3]; 100 to 1000 nM in test [4]. The Kd at BTK T316A is < 5 nM; on BTK T474I, < 2 nM; at BTK C481S it was < 5 nM; at BTK T474S it was < 3 nM; at wt-BTK, < 5 nM. In addition, the “Tau (h) BTK T316A (Act)” value on BTK T316A came to 6.08 h. For the same compound, the “Tau (h) BTK T474I (Act)” value on BTK T474I was 2.11 h. In addition, the “Tau (h) BTK C418S (Act)” value at BTK C481S came out at 5.84 h. At BTK T474S, the residence time is 1.24 h. The “Tau (h) wt-BTK (Act)” value on wt-BTK turned out to be 2.36 h.
As for `C[C@H]1OC/C=C/c2cnc(N)c3c(-c4ccc(C(=O)Nc5cc(C(F)(F)F)ccn5)cc4)nn(c23)[C@@H]2CCC[C@H](C2)NC1=O` [Example 28], the IC50 in test [1] was < 5 nM; in the test on REC-1 T474I cell lines it was 100 to 500 nM; in test [2], < 100 nM; in test [3] it was < 5 nM; in test [4], < 100 nM. The Kd is < 5 nM on BTK T316A; < 2 nM on BTK T474I; < 5 nM on BTK C481S; < 3 nM on BTK T474S; < 5 nM at wt-BTK. Further, the “Tau (h) BTK T316A (Act)” value at BTK T316A is recorded as 1.43 h. For the same compound, the “Tau (h) BTK T474I (Act)” value at BTK T474I was 0.73 h. Besides, the “Tau (h) BTK C418S (Act)” value on BTK C481S worked out at 4.03 h. Further, the residence time at BTK T474S was 3.77 h. For the same compound, the “Tau (h) wt-BTK (Act)” value on wt-BTK is 4.52 h.
As for `N#Cc1ccnc(NC(=O)c2ccc(-c3nn4c5c(cnc(N)c35)/C=C/COCCC(=O)N[C@@H]3CCC[C@@H]4C3)cc2)c1` [Example 164], the IC50 in test [1] is < 5 nM; in the test on REC-1 T474I cell lines, < 100 nM; in test [2], < 100 nM; in test [3] it was < 5 nM; in [4] it was < 100 nM. For the same compound, the “Tau (h) BTK T316A (Act)” value at BTK T316A was determined as 3.41 h. Further, the “Tau (h) BTK T474I (Act)” value at BTK T474I is reported as 0.90 h. Besides, on BTK C481S, the “Tau (h) BTK C418S (Act)” value is >24 h. The residence time on BTK T474S was 6.88 h. Also, the “Tau (h) wt-BTK (Act)” value on wt-BTK is 10.55 h.
Take `Nc1ncc2c3c1c(-c1ccc(C(=O)Nc4cc(C(F)(F)F)ccn4)cc1)nn3[C@@H]1CCCN(C1)C(=O)CCCCCC(O)/C=C/2` (some centres unmarked) [Example 83]: the IC50 in test [1] was < 5 nM; in the test with REC-1 T474I cell lines, 500 to 10000 nM; in test [2], < 100 nM; in test [3] it was < 5 nM; in test [4], < 100 nM. The Kd was < 5 nM at BTK T316A; < 2 nM at BTK T474I; < 5 nM at BTK C481S; < 3 nM on BTK T474S; < 5 nM at wt-BTK. For the same compound, at BTK T316A, the “Tau (h) BTK T316A (Act)” value was determined as 1.36 h. Besides, on BTK C481S, the “Tau (h) BTK C418S (Act)” value came to 4.44 h. Also, the residence time at BTK T474S is 3.04 h. Also, on wt-BTK, the “Tau (h) wt-BTK (Act)” value amounted to 2.95 h.
With `C[C@@H]1CCn2nc(-c3ccc(C(=O)Nc4cc(C(F)(F)F)ccn4)cc3)c3c(N)ncc(c32)/C=C/COCC(=O)N1` [Example 56], the IC50 was < 5 nM in test [1]; 500 to 10000 nM in the test on REC-1 T474I cell lines; < 100 nM in [2]; < 5 nM in test [3]; < 100 nM in test [4]. The Kd was < 5 nM on BTK T316A; 10 to 50 nM and < 5 nM on BTK T474I; < 5 nM at BTK C481S; < 3 nM on BTK T474S; < 5 nM at wt-BTK. The “Tau (h) BTK T316A (Act)” value at BTK T316A is listed as 1.46 h. Besides, the “Tau (h) BTK C418S (Act)” value on BTK C481S was found to be 2.74 h. Besides, the residence time at BTK T474S is 2.62 h. For the same compound, the “Tau (h) wt-BTK (Act)” value at wt-BTK was 2.24 h.
Regarding `C[C@@H]1CC(=O)N[C@@H]2CCC[C@H](C2)n2nc(-c3ccc(C(=O)Nc4cc(C(F)(F)F)ccn4)cc3)c3c(N)ncc(c32)/C=C/CCO1` [Example 157], the IC50 was < 5 nM in [1]; < 100 nM with REC-1 T474I cell lines; < 100 nM in test [2]; < 5 nM in [3]; < 100 nM in [4]. The Kd at BTK T316A is < 5 nM; on BTK T474I, < 2 nM; at BTK C481S it was < 5 nM; on BTK T474S, < 3 nM; on wt-BTK it was < 5 nM. The “Tau (h) BTK T316A (Act)” value at BTK T316A amounted to 5.27 h. Besides, at BTK T474I, the “Tau (h) BTK T474I (Act)” value turned out to be 3.34 h. Also, the “Tau (h) BTK C418S (Act)” value at BTK C481S was determined as 2.42 h. In addition, the residence time on BTK T474S was 1.47 h. Further, the “Tau (h) wt-BTK (Act)” value at wt-BTK came to 5.15 h.
`C[C@H]1CC(=O)N[C@@H]2CCC[C@H](C2)n2nc(-c3ccc(C(=O)Nc4cc(C(F)(F)F)ccn4)cc3)c3c(N)ncc(c32)/C=C/CN1C` [Example 151]: the IC50 was < 5 nM in test [1]; 100 to 500 nM in the test on REC-1 T474I cell lines; < 100 nM in [2]; < 5 nM in [3]; 100 to 1000 nM in test [4]. Also, the “Tau (h) BTK T316A (Act)” value on BTK T316A was determined as 1.89 h. Further, the Kd at BTK T474I is < 2 nM; at BTK C481S it was < 5 nM; at BTK T474S, < 3 nM; at wt-BTK it was < 5 nM. Further, on BTK T474I, the “Tau (h) BTK T474I (Act)” value amounted to 0.70 h. For the same compound, the “Tau (h) BTK C418S (Act)” value at BTK C481S amounted to 8.25 h. Further, the residence time at BTK T474S was 2.11 h. The “Tau (h) wt-BTK (Act)” value on wt-BTK is on record as 7.58 h.
